The test system of this test is Primary Human Gingival Fibroblast (HGF). Kind of test: In-vitro 2D tissue damage assay via Collagen-1 marker (Collagen-1 ELISA after TBHP challenge). Format: cell-based. Conditions: 0.5% gel dilution 24 hr, 50 μM TBHP 1 hr, 24 hr in complete media; supernatant. The method, then:
In vitro gingival 2D gingival fibroblast tissue damage/prevention was used to assess the effects of treatment with Inventive Compositions and Comparative compositions on collagen-1 ELISA assay.
The obtained tissues were kept in cold Dulbecco's modified Eagle's medium (DMEM, Gibco) with 10% fetal bovine serum and a cocktail of antibiotics and antimycotics. Next, the tissues were minced with a blade and spun down at 4° C. and 200×g for 5-10 minutes to separate and wash the pellets. Resuspended tissue explants were laid onto a 60 mm dish and kept in an incubator. Every 3-5 days during culture, fibroblasts grown from tissue explants were washed and continued under passage using 0.2% trypsin. Proliferation tests and cell damage recovery experiments were performed when the fibroblasts reached passages 3-10.
Primary Human gingival fibroblast (HGF) cell was maintained in a 37° C. incubator with 5% CO2 saturation. Dulbecco's modified Eagle's medium (DMEM, Gibco) containing 10% fetal calf serum, 1% penicillin-streptomycin was used as the complete culture medium, which was changed every 2-3 days.
1.8×10^5 Cells were seeded in a 6-well plate and cultured with complete medium in at 37° C. and 5% CO2 for 24 hr. […] The supernatant of cell culture was collected and analysed by Collagen-1 ELISA kit (CUSABIO).

Substance TGF-B [Positive control (TGF-B)] had a Collagen-1 of 155.59 ng/mL.

These data come from patent publication US12582593B2, “Oral care compositions for gum health” (The Procter & Gamble Company, priority 2021, dated 2026).
